The results in this text go back to the supplement of paper PMC10307832.

Common to all, as to experiment: relative viability (nuclei count vs DMSO), 5 days (fraction); higher = more cells survive
Compound in one assay: C1CC(C2=C(C1)C3=C(N2)C=CC(=C3)Cl)C(=O)N [Selisistat]
The procedure, abridged: (§1)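 Cells of lung cancer lines were placed in 1536-well plates and kept overnight at 37 °C. Pinning then delivered five library-drug doses (not always all listed), spaced by √10, onto plates anchored with vehicle, and the cells were left 5 days without changing medium. One step fixed, permeabilised and stained them with Hoechst, and MetaXpress counted nuclei in 4× images. Viability, as a median over plates, is treated-well nuclei divided by vehicle-well nuclei, with acceptance only at control CV below 25% and at least one doubling.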

Compound in a further assay: c1ccc2c(CCNc3ccc(Nc4ccncc4)cc3)c[nH]c2c1 [Serdemetan]
The procedure, abridged: as §1

Compound in the assay “Serdemetan + Palbociclib”: c1ccc2c(CCNc3ccc(Nc4ccncc4)cc3)c[nH]c2c1 [Serdemetan] + CC(=O)c1c(C)c2cnc(Nc3ccc(N4CCNCC4)cn3)nc2n(C2CCCC2)c1=O [Palbociclib] (partner 0.5 µM)
The procedure, abridged: (§2)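 The day after seeding in 1536-well plates, lung cancer cell lines were treated by pin tool with a single drug, or with a fixed anchor-drug dose together with five library-drug doses (not always all listed) in √10 steps. After 5 days, a combined fix-and-stain solution (final 0.05% Triton X-100, 1% formaldehyde, 1 ug/ml Hoechst) was added. Nuclei counted on 4× images gave relative viability as treated counts over vehicle counts, reported as the median of duplicate plates.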

Compound in the assay “Selisistat + Foretinib”: C1CC(C2=C(C1)C3=C(N2)C=CC(=C3)Cl)C(=O)N [Selisistat] + COc1cc2c(Oc3ccc(NC(=O)C4(C(=O)Nc5ccc(F)cc5)CC4)cc3F)ccnc2cc1OCCCN1CCOCC1 [Foretinib] (partner 0.25 µM)
Put shortly: as §2

For UMC-11, the relative viability in the assay with Selisistat (0.4 µM) turned out to be 1; in the assay with Selisistat (1.265 µM), 0.962; in the assay with Selisistat (4 µM) it was 0.883; with Selisistat (12.65 µM) it was 0.978; with Selisistat (40 µM) it was 1.06; in the assay with Serdemetan (0.04 µM), 0.935. Moreover, the relative viability came out at 1.01 in the assay with Serdemetan (0.1265 µM); 0.902 in the assay with Serdemetan (0.4 µM); 0.661 with Serdemetan (1.265 µM); 0.924 in the assay with Serdemetan (4 µM); 0.333 with Serdemetan + Palbociclib (first compound 0.04 µM); 0.343 in the assay with Serdemetan + Palbociclib (first compound 0.1265 µM). Further, the relative viability in the assay with Serdemetan + Palbociclib (first compound 0.4 µM) was 0.381; in the assay with Serdemetan + Palbociclib (first compound 1.265 µM), 0.344; in the assay with Serdemetan + Palbociclib (first compound 4 µM) it was 0.281; with Selisistat + Foretinib (first compound 0.4 µM), 0.979; in the assay with Selisistat + Foretinib (first compound 1.265 µM), 0.988; with Selisistat + Foretinib (first compound 4 µM), 1.08. The values for the relative viability with Selisistat + Foretinib (first compound 12.65 µM) and with Selisistat + Foretinib (first compound 40 µM) were 0.982 and 1.02, respectively.
